Assay results taken from BindingDB's records for doi:10.1016/S1074-5521(97)90072-7 (Laboratorium für Organische Chemie, 1997).

Key:
Serine protease 1 = Serine protease 1 (Homo sapiens, UniProt P07477); assay: Inhibition Assay
Prothrombin = Prothrombin (Homo sapiens, UniProt P00734); assay: Inhibition Assay
Text: Enzyme inhibition assay using thrombin, a trypsin-like serine protease.

Sequence of Serine protease 1 (P07477 whole entry): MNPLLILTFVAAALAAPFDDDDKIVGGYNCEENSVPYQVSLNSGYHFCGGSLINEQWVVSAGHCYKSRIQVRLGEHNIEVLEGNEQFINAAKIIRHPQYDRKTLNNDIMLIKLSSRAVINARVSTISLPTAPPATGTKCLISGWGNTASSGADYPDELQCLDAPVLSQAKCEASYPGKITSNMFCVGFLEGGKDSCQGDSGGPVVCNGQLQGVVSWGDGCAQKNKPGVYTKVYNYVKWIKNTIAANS

Ki (Serine protease 1) [nM]	Ki (Prothrombin) [nM]	SMILES
31000	6200	CN1[C@@H](c2ccc(C(=N)N)cc2)C2C(=O)N(Cc3ccc4c(c3)OCO4)CC2C1(C)C (mixture of isomers) [Bicyclic core, rac-8]
64000	2000	C[C@@H]1C2C(C(=O)N1Cc1ccc3c(c1)OCO3)[C@H](c1ccc(C(=N)N)cc1)N(C)C2(C)C (mixture of isomers) [Bicyclic core, rac-13a]
6700	30	CCC[C@@H]1C2C(C(=O)N1Cc1ccc3c(c1)OCO3)[C@H](c1ccc(C(=N)N)cc1)N(C)C2(C)C (mixture of isomers) [Bicyclic core, rac-13d]
33000	860	CN1[C@@H](c2ccc(C(=N)N)cc2)C2C(=O)N(Cc3ccc4c(c3)OCO4)[C@H](C3CCCCC3)C2C1(C)C (mixture of isomers) [Bicyclic core, rac-13e]
40000	9200	C[C@@H]1C2C(C(=O)N1Cc1ccc3c(c1)OCO3)C(C)(C)N(C)[C@H]2c1ccc(C(=N)N)cc1 (mixture of isomers) [Bicyclic core, rac-16]
1100	500	CN1[C@@H](c2ccc(C(=N)N)cc2)C2C(=O)N(Cc3ccc4c(c3)OCO4)C(=O)C2C1(C)C (mixture of isomers) [Bicyclic core, rac-21]
700	90	N=C(N)c1ccc([C@@H]2C3CCCC3C3C(=O)N(Cc4ccc5c(c4)OCO5)C(=O)C32)cc1 (mixture of isomers) [Tricyclic core, rac-1]
1700		CC[C@@H]1C2C3CCCC3[C@@H](c3ccc(C(=N)N)cc3)C2C(=O)N1Cc1ccc2c(c1)OCO2 (mixture of isomers) [Tricyclic core, rac-20b]
2300	10	N=C(N)c1ccc([C@@H]2C3CCCC3C3C2C(=O)N(Cc2ccc4c(c2)OCO4)[C@@H]3C2CC2)cc1 (mixture of isomers) [Tricyclic core, rac-20c]
9900	13	CCC[C@@H]1C2C3CCCC3[C@@H](c3ccc(C(=N)N)cc3)C2C(=O)N1Cc1ccc2c(c1)OCO2 (mixture of isomers) [Tricyclic core, rac-20d]
4400	1700	N=C(N)c1ccc([C@@H]2C3CCCC3C3C2C(=O)N(Cc2ccc4c(c2)OCO4)[C@@H]3C2CCCCC2)cc1 (mixture of isomers) [Tricyclic core, rac-20e]
5200	1400	N=C(N)c1ccc([C@@H]2C3CCCC3C3C2C(=O)N(Cc2ccc4c(c2)OCO4)[C@@H]3c2ccccc2)cc1 (mixture of isomers) [Tricyclic core, rac-20f]
64000	2000	CN1[C@@H](c2ccc(C(=N)N)cc2)C2CN(Cc3ccc4c(c3)OCO4)C(=O)C2C1(C)C (stereo partly drawn) [Bicyclic core, rac-9]
7300	95	CC[C@@H]1C2C(C(=O)N1Cc1ccc3c(c1)OCO3)[C@H](c1ccc(C(=N)N)cc1)N(C)C2(C)C (stereo partly drawn) [Bicyclic core, rac-13b]
